Measurements published in patent publication US20150072416A1, “METABOLITE FOR IMPROVING PRODUCTION, MAINTENANCE AND PROLIFERATION OF PLURIPOTENT STEM CELLS, COMPOSITION COMPRISING THE SAME, AND METHOD OF CULTURING PLURIPOTENT STEM CELL USING THE SAME” (KOREA RESEARCH INSTITUTE OF BIOSCIENCE AND BIOTENOLOGY, priority 2012, published 2015).

Tested on: embryonic stem cells
Experiment: Embryonic stem cells treated with NAD+ synthesis inhibitor FK866 and NAD precursors (NAD level, AP activity, apoptosis)
Format: cell-based, human
Procedure: Embryonic stem cells were treated with nicotinamide and related compounds, and after 6 days, protein was isolated from the cells. NAD cycling enzyme was added to and reacted with 20 μg of the protein per each group at room temperature for 5 minutes, and then a NADH developer was added and reacted therewith for 2-3 hours. The absorbance at 450 nm was measured using a microplate reader, and the amount of the […] was quantified.
AP staining was performed using a commercial AP kit (Sigma) according to the manufacturer's instruction. Images of AP-positive cells were recorded with HP Scanjet G4010. Also, bight field images were obtained with an Olympus microscope (IX51, Olympus, Japan).
In order to examine the effect of nicotinamide on a reduction in the apoptosis of human pluripotent stem cells, dual apoptosis assay (Biotium, Hayward, Calif.) was performed. Embryonic stem cells or cells reprogrammed were stained with NucView™488 Caspase-3 Substrate (green)/Annextin V (red) at room temperature for 30 minutes, followed by washing with PBS. At least 4 sections of each sample were imaged with an Olympus fluorescence microscope (IX51, Olympus), and the number of cells stained with green (Caspase-3) was counted to quantify the degree of apoptosis.

SMILES | recovery from damage caused by FK866 (co-treatment with FK866, also in mTeSR1-CDM) | apoptosis (treated with FK866) | concentration of NAD in the cells (treated with FK866) | state of the embryonic stem cells (treated with FK866)
O=C(O)c1cccnc1 [nicotinic acid] | recovered | – | – | –
O=C(/C=C/c1cccnc1)NCCCCC1CCN(C(=O)c2ccccc2)CC1 [FK866] | – | induced | decreased | differentiated
